Source: the NIST ThermoML archive (doi:10.1021/acs.jced.5b00934)
± gives the expanded uncertainty stated by the source.

Details: Liquid, Vibrating tube method

CC(C)(C)O [2-methylpropan-2-ol]
Details	mass density [kg/m3]
303.15 K, 99 kPa	775.3 ± 0.8
303.15 K, 298 kPa	775.5 ± 0.8
303.15 K, 499 kPa	775.7 ± 0.8
303.15 K, 898 kPa	776.1 ± 0.8
303.15 K, 1002 kPa	776.2 ± 0.8
303.15 K, 2007 kPa	777.1 ± 0.8
303.15 K, 3007 kPa	778.1 ± 0.8
303.15 K, 4999 kPa	780 ± 0.8
303.15 K, 7003 kPa	781.9 ± 0.8
303.15 K, 8992 kPa	783.7 ± 0.8
303.15 K, 10005 kPa	784.6 ± 0.8
303.15 K, 11999 kPa	786.3 ± 0.8
308.15 K, 97 kPa	770.2 ± 0.8
308.15 K, 298 kPa	770.4 ± 0.8
308.15 K, 500 kPa	770.6 ± 0.8
308.15 K, 897 kPa	771 ± 0.8
308.15 K, 1002 kPa	771.1 ± 0.8
308.15 K, 2009 kPa	772.1 ± 0.8
308.15 K, 3000 kPa	773.1 ± 0.8
308.15 K, 5006 kPa	775.1 ± 0.8
308.15 K, 9006 kPa	778.8 ± 0.8
308.15 K, 10007 kPa	779.7 ± 0.8
308.15 K, 12005 kPa	781.5 ± 0.8
308.15 K, 15021 kPa	784.1 ± 0.8
308.15 K, 19998 kPa	788.2 ± 0.8
308.15 K, 22003 kPa	789.8 ± 0.8
308.15 K, 24990 kPa	792.2 ± 0.9
308.15 K, 28006 kPa	794.5 ± 0.9
308.15 K, 30005 kPa	796 ± 0.9
308.16 K, 7005 kPa	777 ± 0.8
308.16 K, 18006 kPa	786.6 ± 0.8
313.15 K, 99 kPa	764.8 ± 0.8
313.15 K, 298 kPa	765 ± 0.8
313.15 K, 502 kPa	765.2 ± 0.8
313.15 K, 904 kPa	765.7 ± 0.8
313.15 K, 1009 kPa	765.8 ± 0.8
313.15 K, 2016 kPa	766.8 ± 0.8
313.15 K, 3006 kPa	767.8 ± 0.8
313.15 K, 5010 kPa	769.9 ± 0.8
313.15 K, 7006 kPa	771.8 ± 0.8
313.15 K, 9005 kPa	773.7 ± 0.8
313.15 K, 10007 kPa	774.7 ± 0.8
313.15 K, 12005 kPa	776.5 ± 0.8
313.15 K, 15005 kPa	779.2 ± 0.8
313.15 K, 18003 kPa	781.8 ± 0.8
313.15 K, 20015 kPa	783.5 ± 0.8
313.15 K, 22002 kPa	785.1 ± 0.9
313.15 K, 25007 kPa	787.5 ± 0.9
313.15 K, 28002 kPa	789.9 ± 0.9
313.15 K, 30000 kPa	791.4 ± 0.9
313.15 K, 33001 kPa	793.7 ± 0.9
313.15 K, 33012 kPa	793.6 ± 0.9
313.15 K, 34006 kPa	794.4 ± 0.9
313.15 K, 35008 kPa	795.1 ± 0.9
313.15 K, 38012 kPa	797.2 ± 0.9
313.15 K, 40002 kPa	798.6 ± 0.9
313.15 K, 42007 kPa	800 ± 0.9
313.15 K, 44997 kPa	802 ± 0.9
313.16 K, 32001 kPa	792.9 ± 0.9
318.15 K, 100 kPa	759.4 ± 0.8
318.15 K, 298 kPa	759.6 ± 0.8
318.15 K, 498 kPa	759.8 ± 0.8
318.15 K, 901 kPa	760.3 ± 0.8
318.15 K, 1006 kPa	760.4 ± 0.8
318.15 K, 2001 kPa	761.5 ± 0.8
318.15 K, 3003 kPa	762.6 ± 0.8
318.15 K, 5002 kPa	764.7 ± 0.8
318.15 K, 7005 kPa	766.7 ± 0.8
318.15 K, 8999 kPa	768.7 ± 0.8
318.15 K, 10002 kPa	769.7 ± 0.8
318.15 K, 11999 kPa	771.6 ± 0.8
318.15 K, 15010 kPa	774.4 ± 0.8
318.15 K, 17998 kPa	777 ± 0.8
318.15 K, 20006 kPa	778.8 ± 0.8
318.15 K, 21999 kPa	780.5 ± 0.9
318.15 K, 24994 kPa	782.9 ± 0.9
318.15 K, 28005 kPa	785.4 ± 0.9
318.15 K, 30001 kPa	787 ± 0.9
318.15 K, 32001 kPa	788.5 ± 0.9
318.15 K, 32993 kPa	789.3 ± 0.9
318.15 K, 33002 kPa	789.3 ± 0.9
318.15 K, 34010 kPa	790 ± 0.9
318.15 K, 35001 kPa	790.8 ± 0.9
318.15 K, 38000 kPa	793 ± 0.9
318.15 K, 40010 kPa	794.4 ± 0.9
318.15 K, 42021 kPa	795.9 ± 0.9
318.15 K, 45005 kPa	797.9 ± 0.9
318.15 K, 47997 kPa	799.9 ± 0.9
318.15 K, 49998 kPa	801.3 ± 0.9
318.15 K, 52004 kPa	802.6 ± 0.9
318.15 K, 55002 kPa	804.6 ± 0.9
318.15 K, 57994 kPa	806.5 ± 0.9
318.15 K, 60002 kPa	807.7 ± 1
323.15 K, 99 kPa	753.9 ± 0.8
323.15 K, 298 kPa	754.1 ± 0.8
323.15 K, 502 kPa	754.4 ± 0.8
323.15 K, 901 kPa	754.9 ± 0.8
323.15 K, 1004 kPa	755 ± 0.8
323.15 K, 2003 kPa	756.1 ± 0.8
323.15 K, 3002 kPa	757.2 ± 0.8
323.15 K, 5004 kPa	759.4 ± 0.8
323.15 K, 7002 kPa	761.5 ± 0.8
323.15 K, 9002 kPa	763.5 ± 0.8
323.15 K, 10002 kPa	764.5 ± 0.8
323.15 K, 12000 kPa	766.5 ± 0.8
323.15 K, 14999 kPa	769.3 ± 0.8
323.15 K, 17998 kPa	772.1 ± 0.8
323.15 K, 20000 kPa	773.9 ± 0.8
323.15 K, 22000 kPa	775.7 ± 0.9
323.15 K, 25000 kPa	778.2 ± 0.9
323.15 K, 27995 kPa	780.7 ± 0.9
323.15 K, 30002 kPa	782.4 ± 0.9
323.15 K, 32000 kPa	784 ± 0.9
323.15 K, 33000 kPa	784.7 ± 0.9
323.15 K, 33001 kPa	784.7 ± 0.9
323.15 K, 34000 kPa	785.5 ± 0.9
323.15 K, 35004 kPa	786.2 ± 0.9
323.15 K, 38000 kPa	788.5 ± 0.9
323.15 K, 39998 kPa	790 ± 0.9
323.15 K, 41998 kPa	791.5 ± 0.9
323.15 K, 45000 kPa	793.6 ± 0.9
323.15 K, 47996 kPa	795.7 ± 0.9
323.15 K, 50000 kPa	797.1 ± 0.9
323.15 K, 51998 kPa	798.4 ± 0.9
323.15 K, 55006 kPa	800.5 ± 0.9
323.15 K, 57995 kPa	802.4 ± 1
323.15 K, 60000 kPa	803.7 ± 1
328.15 K, 101 kPa	748.4 ± 0.8
328.15 K, 298 kPa	748.7 ± 0.8
328.15 K, 499 kPa	748.9 ± 0.8
328.15 K, 898 kPa	749.4 ± 0.8
328.15 K, 1005 kPa	749.5 ± 0.8
328.15 K, 2001 kPa	750.7 ± 0.8
328.15 K, 3001 kPa	751.9 ± 0.8
328.15 K, 5001 kPa	754.1 ± 0.8
328.15 K, 7001 kPa	756.3 ± 0.8
328.15 K, 9004 kPa	758.5 ± 0.8
328.15 K, 9999 kPa	759.5 ± 0.8
328.15 K, 11999 kPa	761.6 ± 0.8
328.15 K, 15004 kPa	764.5 ± 0.8
328.15 K, 18006 kPa	767.4 ± 0.8
328.15 K, 19995 kPa	769.2 ± 0.9
328.15 K, 22000 kPa	771 ± 0.9
328.15 K, 24996 kPa	773.6 ± 0.9
328.15 K, 27998 kPa	776.2 ± 0.9
328.15 K, 30005 kPa	777.9 ± 0.9
328.15 K, 32005 kPa	779.5 ± 0.9
328.15 K, 33023 kPa	780.3 ± 0.9
328.15 K, 33038 kPa	780.4 ± 0.9
328.15 K, 34013 kPa	781.1 ± 0.9
328.15 K, 35004 kPa	781.9 ± 0.9
328.15 K, 38002 kPa	784.3 ± 0.9
328.15 K, 40024 kPa	785.8 ± 0.9
328.15 K, 41999 kPa	787.2 ± 0.9
328.15 K, 45002 kPa	789.4 ± 0.9
328.15 K, 47997 kPa	791.6 ± 0.9
328.15 K, 49992 kPa	793 ± 0.9
328.15 K, 55000 kPa	796.4 ± 0.9
328.15 K, 57995 kPa	798.3 ± 1
328.15 K, 60003 kPa	799.6 ± 1
328.16 K, 51996 kPa	794.3 ± 0.9
333.15 K, 103 kPa	742.8 ± 0.8
333.15 K, 307 kPa	743.1 ± 0.8
333.15 K, 502 kPa	743.3 ± 0.8
333.15 K, 915 kPa	743.8 ± 0.8
333.15 K, 1007 kPa	744 ± 0.8
333.15 K, 2013 kPa	745.2 ± 0.8
333.15 K, 3006 kPa	746.4 ± 0.8
333.15 K, 5002 kPa	748.8 ± 0.8
333.15 K, 7005 kPa	751.1 ± 0.8
333.15 K, 9001 kPa	753.3 ± 0.8
333.15 K, 9999 kPa	754.3 ± 0.8
333.15 K, 12003 kPa	756.5 ± 0.8
333.15 K, 15000 kPa	759.6 ± 0.8
333.15 K, 17995 kPa	762.5 ± 0.8
333.15 K, 19997 kPa	764.4 ± 0.9
333.15 K, 21996 kPa	766.2 ± 0.9
333.15 K, 24994 kPa	768.9 ± 0.9
333.15 K, 27993 kPa	771.6 ± 0.9
333.15 K, 30003 kPa	773.3 ± 0.9
333.15 K, 32004 kPa	775 ± 0.9
333.15 K, 32850 kPa	775.7 ± 0.9
333.15 K, 32871 kPa	775.7 ± 0.9
333.15 K, 34000 kPa	776.6 ± 0.9
333.15 K, 34990 kPa	777.4 ± 0.9
333.15 K, 38004 kPa	779.8 ± 0.9
333.15 K, 39997 kPa	781.4 ± 0.9
333.15 K, 41998 kPa	782.9 ± 0.9
333.15 K, 44909 kPa	785.1 ± 0.9
333.15 K, 48119 kPa	787.4 ± 0.9
